Patent publication US20220340564A1, “ANTIBACTERIAL COMPOUNDS” (Janssen Sciences Ireland Unlimited Company, priority 2019, published 2022)
Converted amounts (≈) assume the structure as drawn. Where two headings read alike, the source gives them in different places.

What was measured:
[1] = test system: Mycobacterium tuberculosis strain EH4.0 expressing green-fluorescent protein (GFP); assay: microbe, parasite or virus in culture; type: cell-based; settings: 168 h, read-out: pIC50 (converted)
Na Ch = assay: CVS panel, Na channel
Ca Ch = assay: CVS panel, Ca channel
Text: (§1) The compounds of the invention/examples may have advantages associated with in vitro potency, kill kinetics (i.e. bactericidal effect) in vitro, PK properties, food effect, safety/toxicity (including liver toxicity, coagulation, […]), metabolic stability, Ames II negativity, MNT negativity, aqueous based solubility (and ability to formulate) and/or cardiovascular effect e.g. on animals (e.g. anesthetized guinea pig). The data below that was generated/calculated may be obtained using standard methods/assays, for instance that are available in the literature or which may be performed by a supplier (e.g. Microsomal Stability Assay—Cyprotex, Mitochondrial toxicity (Glu/Gal) assay —Cyprotex, as well as literature CYP cocktail inhibition assays). In some instances, GSH was measured (reactive metabolites, glucuronidation) to observe if a dihydrodiol is observed by LCMS (fragmentation ions), which would correspond to a dihydroxylation on the core heterocycle.

hERGdof = hERGdof (Homo sapiens, UniProt Q12809); assay: CVS panel, hERGdof; type: binding
[2] = test system: Cyp-450 (cocktail, isoforms not named); assay: Cocktail Cyp-450 inhibition; type: in vitro ADME
Text: as §1

[3] = GSH (GSH/CN) reactive metabolite measurement; type: in vitro ADME
Text: as §1

[4] = Mitochondrial toxicity (Glu/Gal) assay; type: cell-based
Text: as §1

in vitro [5] = settings: human, microsomes
in vitro [6] = settings: mouse, microsomes
hERG = hERG (Homo sapiens, UniProt Q12809); assay: CVS panel, hERGdof; type: binding; settings: human
[7] = Microsomal stability CLint (H); settings: human, microsomes
[8] = Microsomal stability CLint (M); settings: mouse, microsomes
[9] = Bioavailability in rodents
CYP3A4 = CYP3A4 (Homo sapiens, UniProt P08684); assay: Cocktail Cyp-450 inhibition, CYP3A4; type: in vitro ADME
M. tuberculosis H37Rv = M. tuberculosis H37Rv inside macrophages; J. Medicinal Chemistry, 2014, 57 (12), pp 5293-5305; cited from earlier work
[10] = in vivo
AMES II = type: cell-based
Text: as §1

Kinase panel = assay: Kinase panel; type: biochemical
in vivo = settings: rat, po, 5 mg/kg
Procedure: Oral Bioavailability of Compound 161 in Rat
Compound 161 was administer PO in rat (5 mg/kg, PEG4000 (sol.), 0.5 w/v Methocel (susp.) and the following results were obtained for the solution and suspension.

physchem = settings: thermodynamic from solid
in vitro [11] = settings: mouse, hepatocytes
in vitro [12] = settings: rat, hepatocytes
in vitro [13] = settings: dog, hepatocytes
in vitro [14] = settings: human, hepatocytes
in vitro [15] = settings: human
in vitro [16] = settings: mouse
Cyp 3A4 = Cyp 3A4 induction; settings: at 1 μM
[17] = unit inferred, read-out: Cocktail Cyp-450, IC50

Sequence of hERGdof (Q12809 whole entry, canonical isoform): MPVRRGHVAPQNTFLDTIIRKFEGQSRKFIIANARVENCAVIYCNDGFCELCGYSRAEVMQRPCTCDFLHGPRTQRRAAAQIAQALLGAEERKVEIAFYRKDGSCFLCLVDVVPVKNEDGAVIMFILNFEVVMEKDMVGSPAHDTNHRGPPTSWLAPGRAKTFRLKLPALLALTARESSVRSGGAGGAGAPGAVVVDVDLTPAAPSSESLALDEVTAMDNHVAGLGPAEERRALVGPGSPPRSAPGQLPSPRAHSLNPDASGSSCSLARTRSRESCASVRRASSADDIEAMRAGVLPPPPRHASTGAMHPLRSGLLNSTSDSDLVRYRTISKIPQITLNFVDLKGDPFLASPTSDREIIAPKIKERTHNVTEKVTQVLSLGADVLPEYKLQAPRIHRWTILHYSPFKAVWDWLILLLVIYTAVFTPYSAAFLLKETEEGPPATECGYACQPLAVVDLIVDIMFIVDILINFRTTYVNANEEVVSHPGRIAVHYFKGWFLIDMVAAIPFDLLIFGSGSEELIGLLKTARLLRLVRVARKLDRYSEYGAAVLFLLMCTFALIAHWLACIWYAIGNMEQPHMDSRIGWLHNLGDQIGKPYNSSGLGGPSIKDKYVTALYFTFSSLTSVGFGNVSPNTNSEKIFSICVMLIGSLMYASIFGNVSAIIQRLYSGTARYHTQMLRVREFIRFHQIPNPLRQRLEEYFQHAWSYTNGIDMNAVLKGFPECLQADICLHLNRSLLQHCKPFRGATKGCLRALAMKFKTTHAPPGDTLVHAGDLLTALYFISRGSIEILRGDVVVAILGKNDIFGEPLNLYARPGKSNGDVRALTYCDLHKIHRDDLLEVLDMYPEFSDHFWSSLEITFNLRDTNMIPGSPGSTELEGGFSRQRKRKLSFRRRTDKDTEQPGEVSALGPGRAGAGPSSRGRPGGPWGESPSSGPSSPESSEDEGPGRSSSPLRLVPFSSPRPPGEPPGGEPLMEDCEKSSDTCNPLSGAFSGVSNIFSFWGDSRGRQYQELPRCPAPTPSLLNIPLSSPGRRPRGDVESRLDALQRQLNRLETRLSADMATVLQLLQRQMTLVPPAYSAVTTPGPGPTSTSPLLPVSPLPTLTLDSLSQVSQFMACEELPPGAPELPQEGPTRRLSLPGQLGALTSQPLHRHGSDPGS
Sequence of hERG (Q12809 whole entry): as the sequence (Q12809 whole entry, canonical isoform) above
Sequence of CYP3A4 (P08684 whole entry): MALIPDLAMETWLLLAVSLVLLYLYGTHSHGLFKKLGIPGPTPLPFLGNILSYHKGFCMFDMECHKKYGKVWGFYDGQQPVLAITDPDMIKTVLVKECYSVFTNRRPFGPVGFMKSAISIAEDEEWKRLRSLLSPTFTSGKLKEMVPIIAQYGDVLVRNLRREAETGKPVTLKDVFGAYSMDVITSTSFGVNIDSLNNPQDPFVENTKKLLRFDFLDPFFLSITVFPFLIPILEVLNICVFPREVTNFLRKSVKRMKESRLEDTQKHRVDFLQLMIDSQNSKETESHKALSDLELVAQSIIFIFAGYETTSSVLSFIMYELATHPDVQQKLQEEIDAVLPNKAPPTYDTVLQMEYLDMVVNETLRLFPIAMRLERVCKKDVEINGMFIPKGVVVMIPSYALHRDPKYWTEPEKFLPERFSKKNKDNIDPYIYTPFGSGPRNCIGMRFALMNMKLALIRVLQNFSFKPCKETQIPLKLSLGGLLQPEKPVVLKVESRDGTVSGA

| SMILES | IC50 [1] | IC50 (Na Ch) | IC50 (Ca Ch) | IC50 (hERGdof; read-out: CVS hERGdof, IC50) | IC50 [2, 17] | GSH / reactive metabolites [3] | Glu/Gal assay ratio (mitotoxicity) [4] | microsomal CLint (in vitro [5]) | microsomal CLint (in vitro [6]) | microsomal CLint [7] | microsomal CLint [8] | other results |
| --- | --- | --- | --- | --- | --- | --- | --- | --- | --- | --- | --- | --- |
| CCc1nc2ccc(Cl)cn2c1C(=O)NCc1ccc(N2CCN(S(=O)(=O)C(F)(F)F)C(OC)=N2)cc1 [Compound 6] | 0.00631 µM | > 10 µM | > 10 µM | > 10 µM | > 20 µM | no measure of GSH | < 3 | 37.6 µL/min/mg | 49 µL/min/mg | – | – | – |
| CCc1nc2ccc(C#N)cn2c1C(=O)NCc1ccc(N2CCN(S(=O)(=O)C(F)(F)F)C(OC)=N2)c(F)c1 [Compound 73] | 0.0513 µM | > 10 µM | > 10 µM | > 10 µM | > 20 µM | no measure of GSH | – | 18 µL/min/mg | 93 µL/min/mg | – | – | – |
| CCc1nc2ncc(Cl)cn2c1C(=O)NCc1ccc(N2CCN(S(=O)(=O)C(F)(F)F)C=N2)cc1 [Compound 13] | 0.00398 µM | > 10 µM | > 10 µM | – | > 20 µM | – | – | – | – | 16.3 µL/min/mg | 13.3 µL/min/mg | IC50 (hERG): 7.4 µM |
| CCc1nc2ccc(Cl)cn2c1C(=O)NCc1ccc(N2CCN(S(=O)(=O)C(F)(F)F)C=N2)cc1 [Compound 1] | 0.00708 µM | > 10 µM | > 10 µM | – | > 20 µM | – | < 3 | – | – | 29.6 µL/min/mg | 21.5 µL/min/mg | IC50 (hERGdof): > 10 µM; bioavailability (as shown in rodents) [9]: good bioavailaibility |
| CCc1nc2ccc(Cl)cn2c1C(=O)NCc1ccc(N2CCN(S(C)(=O)=O)C=N2)cc1 [Compound 20] | 0.0316 µM | > 10 µM | > 10 µM | > 10 µM | > 20 µM | – | – | 56.6 µL/min/mg | 15.9 µL/min/mg | – | – | IC50 (CYP3A4): 13.2 µM |
| CCc1nc2ccc(Cl)cn2c1C(=O)NCc1ccc(N2CCC(c3ccc(OC(F)(F)F)cc3)CC2)cc1 [Compound Q203] | – | – | – | – | – | – | – | – | – | – | – | MIC50 (M. tuberculosis H37Rv): 0.28 nM (≈ 0.156 ng/mL) |
| O=C(NCc1ccc(N2CCN(S(=O)(=O)C(F)(F)F)C=N2)c(F)c1)c1c(C(F)(F)F)nc2ccccn12 [Compound 152] | 0.002 µM | – | – | – | – | formation of reactive metabolites was blocked | < 3 | – | – | – | – | bioavailability (as shown in rodents) [10]: good bioavailaibility |
| CCc1nc2ccc(Cl)cn2c1C(=O)NCc1ccc(N2CCN(S(=O)(=O)C(F)(F)F)C=N2)cc1F [Compound 16] | 0.00631 µM | > 10 µM | > 10 µM | > 10 µM | > 20 µM | – | – | – | – | 24 µL/min/mg | 18 µL/min/mg | – |
| CCc1nc2ncc(C)cn2c1C(=O)NCc1ccc(N2CCN(S(=O)(=O)C(F)(F)F)C=N2)c(F)c1 [Compound 161] | 0.000776 µM | > 10 µM | > 10 µM | 15.8 µM | – | – | < 3 | – | – | – | – | IC50 [2]: > 20 µM; AMES II (AMES II): negative; Kinase panel (Kinase panel): negative; AUC0-inf (in vivo): 5610 ± 2747 ng·h/mL; AUC0-inf (in vivo; AUC0-inf): 10900 ± 1720 ng·h/mL; Cmax (in vivo; Cmax): 1230 ± 406 ng/mL; Tmax (in vivo; Tmax): 4 h; half-life (in vivo; t1/2): 3.55 ± 0.45 h; bioavailability (as shown in rodents) [10]: good bioavailaibility; solubility thermodynamic (physchem; fassif): 5 µg/mL (≈ 9.48 µM); solubility thermodynamic (physchem; fessif): 16 µg/mL (≈ 30.3 µM); solubility thermodynamic (physchem; pH 2, simulated gastric fluid): 33 µg/mL (≈ 62.6 µM); solubility thermodynamic (physchem; pH 7, aqueous buffer): < 0.02 µg/mL; hepatocyte CLint (in vitro [11]): 12 µL/min/1e6 cells; hepatocyte CLint (in vitro [12]): 19 µL/min/1e6 cells; hepatocyte CLint (in vitro [13]): 4.7 µL/min/1e6 cells; hepatocyte CLint (in vitro [14]): 6.7 µL/min/1e6 cells; fraction unbound (in vitro [15]): 0.015; fraction unbound (in vitro [16]): 0.0245; Cyp 3A4 induction (% control) (Cyp 3A4): 3.0 % control |
| CCc1nc2ccc(Cl)cn2c1C(=O)NCc1ccc(N2CCN(S(=O)(=O)C(F)(F)F)C=N2)c(F)c1 [Compound 9] | 0.000631 µM | > 10 µM | > 10 µM | > 10 µM | > 20 µM | – | – | – | – | 19 µL/min/mg | 41 µL/min/mg | – |
